# Measurements from patent US10738028B2, “Spiro three-membered ring, spiro five-membered ring peptide deformylase inhibitor and use thereof in antibacteria and anti-tumor” (priority 2016, dated 2020).
# Like-named read-outs stand apart in the source and are kept apart here.
# What was measured:
# Type in all cases: cell-based
# [1] = tested on: Streptococcus pneoumoniae (SPN); assay: MIC, two-fold agar dilution (CLSI), clinical isolates
# Procedure, shortened: (§1)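 CLSI two-fold agar dilution; MIC of test samples read per tested strain.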
# [2] = tested on: methicillin-resistant Staphylococcus epidermidis (MRSE); assay: as above; settings: for Anti-bacterial activity (MIC), strain MRSE 15-1: clinical isolate MRSE 15-1; for Anti-bacterial activity (MIC), strain MRSE 15-2: clinical isolate MRSE 15-2; for Anti-bacterial activity (MIC), strain MRSE 15-3: clinical isolate MRSE 15-3; for Anti-bacterial activity (MIC), strain MRSE 15-7: clinical isolate MRSE 15-7
# Procedure, shortened: as §1
# [3] = tested on: Enterococcus faecium (EFM); assay: as above
# Procedure, shortened: as §1
# [4] = tested on: Moraxella catarrhalis (BCA); assay: as above
# Procedure, shortened: as §1
# [5] = tested on: Escherichia coli (including ESBLs, non-ESBLs); assay: as above; settings: for Anti-bacterial activity (MIC), strain ECO+ 15-1: clinical isolate ECO+ 15-1; for Anti-bacterial activity (MIC), strain ECO+ 15-2: clinical isolate ECO+ 15-2; for Anti-bacterial activity (MIC), strain ECO+ 15-3: clinical isolate ECO+ 15-3; for Anti-bacterial activity (MIC), strain ECO+ 15-4: clinical isolate ECO+ 15-4; for Anti-bacterial activity (MIC), strain ECO− 15-1: clinical isolate ECO− 15-1; for Anti-bacterial activity (MIC), strain ECO− 15-2: clinical isolate ECO− 15-2; for Anti-bacterial activity (MIC), strain ECO− 15-3: clinical isolate ECO− 15-3; for Anti-bacterial activity (MIC), strain ECO− 15-4: clinical isolate ECO− 15-4
# Procedure, shortened: as §1
# [6] = tested on: methicillin-sensitive Staphylococcus aureus (MSSA); assay: as above; settings: for Anti-bacterial activity (MIC), strain MSSA 15-3: clinical isolate MSSA 15-3; for Anti-bacterial activity (MIC), strain MSSA 15-4: clinical isolate MSSA 15-4; for Anti-bacterial activity (MIC), strain MSSA 15-5: clinical isolate MSSA 15-5; for Anti-bacterial activity (MIC), strain MSSA 15-6: clinical isolate MSSA 15-6
# Procedure, shortened: as §1
# [7] = tested on: methicillin-sensitive Staphylococcus epidermidis (MSSE); assay: as above; settings: for Anti-bacterial activity (MIC), strain MSSE 15-3: clinical isolate MSSE 15-3; for Anti-bacterial activity (MIC), strain MSSE 15-4: clinical isolate MSSE 15-4; for Anti-bacterial activity (MIC), strain MSSE 15-5: clinical isolate MSSE 15-5; for Anti-bacterial activity (MIC), strain MSSE 15-6: clinical isolate MSSE 15-6
# Procedure, shortened: as §1
# [8] = tested on: methicillin-resistant Staphylococcus aureus (MRSA); assay: as above; settings: for Anti-bacterial activity (MIC), strain MRSA 15-1: clinical isolate MRSA 15-1; for Anti-bacterial activity (MIC), strain MRSA 15-2: clinical isolate MRSA 15-2; for Anti-bacterial activity (MIC), strain MRSA 15-3: clinical isolate MRSA 15-3; for Anti-bacterial activity (MIC), strain MRSA 15-4: clinical isolate MRSA 15-4
# Procedure, shortened: as §1
# [9] = tested on: Enterococcus faecalis (EFA); assay: as above
# Procedure, shortened: as §1
# [10] = tested on: HCT-116 colorectal cancer cell line; assay: CCK-8 proliferation inhibition; settings: concentration of 30 μM, 72 hours, CCK-8; for inhibition at 30 µM: Homo sapiens, HCT-116, 72 h
# Procedure, shortened: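 2000 cells/well, McCoy's 5A + 10% newborn bovine serum; overnight attach, 37° C./5% CO2. Cpd from DMSO stock diluted in medium, 72 h. Readout: CCK-8 (1:10). Ctrl 1‰ DMSO.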
# [11] = tested on: MGC-803 gastric cancer cell line; assay: CCK-8 proliferation inhibition; settings: Homo sapiens, MGC-803, 72 h, concentration of 30 μM
# Procedure, shortened: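 CCK-8 read-out after 72 h drug exposure; 2000 cells/well, overnight pre-culture (37° C, 5% CO2); vehicle 1‰ DMSO. Media: PC3 F12; MGC-803/Jurkat 1640; MCF-7 DMEM high glucose; all +10% newborn bovine serum, 1% antibiotics.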
# [12] = tested on: A549 lung cancer cell line; assay: CCK-8 proliferation inhibition; settings: concentration of 30 μM; for inhibition at 30 µM: Homo sapiens, A549, 72 h
# Procedure, shortened: (§2)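 Plating at 2000 cells/well, then incubation overnight at 37° C. Next, a range of compound concentrations for 72 hours (control 1‰ DMSO). Finally, medium decanted and CCK-8 diluted 1:10 added.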
# [13] = tested on: BEL-7402 liver cancer cell line; assay: CCK-8 proliferation inhibition; settings: concentration of 30 μM; for inhibition at 30 µM: Homo sapiens, Bel-7402, 72 h; for Inhibition of proliferation, Liver cancer BEL-7402: 72 hours, 30 µM
# Procedure, shortened: as §2
# [14] = read-out: HCT116 inhibition rate/%
compound,measurement,setting,value
O=C(C[C@@H](CC1CCCC1)C(=O)N1CC2(CC2)C[C@H]1C(=O)Nc1ncccc1F)NO [Example 67],Anti-bacterial activity (MIC),[1]; strain SPN 16-2,0.25 mg/L
same,Anti-bacterial activity (MIC),[1]; strain SPN 16-4,0.25 mg/L
same,"Anti-bacterial activity (MIC), strain MRSE 15-1",[2],0.5 mg/L
same,"Anti-bacterial activity (MIC), strain MRSE 15-2",[2],0.5 mg/L
same,"Anti-bacterial activity (MIC), strain MRSE 15-3",[2],0.5 mg/L
same,"Anti-bacterial activity (MIC), strain MRSE 15-7",[2],0.5 mg/L
same,Anti-bacterial activity (MIC),[3]; strain EFM 15-1,32 mg/L
same,Anti-bacterial activity (MIC),[3]; strain EFM 15-2,> 32 mg/L
same,Anti-bacterial activity (MIC),[3]; strain EFM 15-3,> 32 mg/L
same,Anti-bacterial activity (MIC),[3]; strain EFM 15-4,2 mg/L
same,Anti-bacterial activity (MIC),[3]; strain EFM 15-5,0.25 mg/L
same,Anti-bacterial activity (MIC),[3]; strain EFM 15-6,0.25 mg/L
same,Anti-bacterial activity (MIC),[4]; strain BCA 14-1,2 mg/L
same,Anti-bacterial activity (MIC),[4]; strain BCA 14-4,2 mg/L
same,Anti-bacterial activity (MIC),[4]; strain BCA 14-5,2 mg/L
same,Anti-bacterial activity (MIC),[4]; strain BCA 14-6,2 mg/L
same,Anti-bacterial activity (MIC),[4]; strain BCA 14-7,2 mg/L
same,Anti-bacterial activity (MIC),[4]; strain BCA 14-8,2 mg/L
same,Anti-bacterial activity (MIC),[4]; strain BCA 14-10,0.5 mg/L
same,"Anti-bacterial activity (MIC), strain ECO+ 15-1",[5],16 mg/L
same,"Anti-bacterial activity (MIC), strain ECO+ 15-2",[5],16 mg/L
same,"Anti-bacterial activity (MIC), strain ECO+ 15-3",[5],32 mg/L
same,"Anti-bacterial activity (MIC), strain ECO+ 15-4",[5],32 mg/L
same,"Anti-bacterial activity (MIC), strain ECO− 15-1",[5],32 mg/L
same,"Anti-bacterial activity (MIC), strain ECO− 15-2",[5],32 mg/L
same,"Anti-bacterial activity (MIC), strain ECO− 15-3",[5],32 mg/L
same,"Anti-bacterial activity (MIC), strain ECO− 15-4",[5],32 mg/L
same,"Anti-bacterial activity (MIC), strain MSSA 15-3",[6],0.5 mg/L
same,"Anti-bacterial activity (MIC), strain MSSA 15-4",[6],0.125 mg/L
same,"Anti-bacterial activity (MIC), strain MSSA 15-5",[6],0.125 mg/L
same,"Anti-bacterial activity (MIC), strain MSSA 15-6",[6],32 mg/L
same,"Anti-bacterial activity (MIC), strain MSSE 15-3",[7],0.25 mg/L
same,"Anti-bacterial activity (MIC), strain MSSE 15-4",[7],0.5 mg/L
same,"Anti-bacterial activity (MIC), strain MSSE 15-5",[7],0.5 mg/L
same,"Anti-bacterial activity (MIC), strain MSSE 15-6",[7],0.125 mg/L
same,"Anti-bacterial activity (MIC), strain MRSA 15-1",[8],0.25 mg/L
same,"Anti-bacterial activity (MIC), strain MRSA 15-2",[8],0.5 mg/L
same,"Anti-bacterial activity (MIC), strain MRSA 15-3",[8],0.25 mg/L
same,"Anti-bacterial activity (MIC), strain MRSA 15-4",[8],0.5 mg/L
same,Anti-bacterial activity (MIC),[9]; strain EFA 15-1,32 mg/L
same,Anti-bacterial activity (MIC),[9]; strain EFA 15-2,32 mg/L
same,Anti-bacterial activity (MIC),[9]; strain EFA 15-3,32 mg/L
same,Anti-bacterial activity (MIC),[9]; strain EFA 15-4,32 mg/L
same,Anti-bacterial activity (MIC),[9]; strain EFA 15-5,32 mg/L
same,Anti-bacterial activity (MIC),[9]; strain EFA 15-6,32 mg/L
same,Anti-bacterial activity (MIC),[9]; strain EFA 15-9,8 mg/L
same,inhibition at 30 µM,"[10]; Table 5, read-out: Inhibition of proliferation, Colorectal cancer HCT116",≥ 30%
same,inhibition at 30 µM,[10]; [14],44%
same,inhibition at 30 µM,[11],39%
same,inhibition at 30 µM,[12],36%
same,inhibition at 30 µM,[13],> 50%
same,"Inhibition of proliferation, Liver cancer BEL-7402",[13],57%
"O=C(C[C@@H](CC1CCCC1)C(=O)N1CC2(CC2)C[C@H]1C(=O)Nc1ccno1)NO [Example 70, (S)-5-((R)-2-(cyclopentylmethyl)-4-(hydroxyamino)-4-oxobutyl)-N-(isoxazol-5-yl)-5-spiro[2.4]heptane-6-carboxamide]",Anti-bacterial activity (MIC),[1]; strain SPN 16-2,0.5 mg/L
same,Anti-bacterial activity (MIC),[1]; strain SPN 16-4,0.25 mg/L
same,"Anti-bacterial activity (MIC), strain MRSE 15-1",[2],0.5 mg/L
same,"Anti-bacterial activity (MIC), strain MRSE 15-2",[2],2 mg/L
same,"Anti-bacterial activity (MIC), strain MRSE 15-3",[2],2 mg/L
same,"Anti-bacterial activity (MIC), strain MRSE 15-7",[2],2 mg/L
same,Anti-bacterial activity (MIC),[3]; strain EFM 15-1,32 mg/L
same,Anti-bacterial activity (MIC),[3]; strain EFM 15-2,32 mg/L
same,Anti-bacterial activity (MIC),[3]; strain EFM 15-3,32 mg/L
same,Anti-bacterial activity (MIC),[3]; strain EFM 15-4,1 mg/L
same,Anti-bacterial activity (MIC),[3]; strain EFM 15-5,0.2 mg/L
same,Anti-bacterial activity (MIC),[3]; strain EFM 15-6,2 mg/L
same,Anti-bacterial activity (MIC),[4]; strain BCA 14-1,1 mg/L
same,Anti-bacterial activity (MIC),[4]; strain BCA 14-4,2 mg/L
same,Anti-bacterial activity (MIC),[4]; strain BCA 14-5,2 mg/L
same,Anti-bacterial activity (MIC),[4]; strain BCA 14-6,2 mg/L
same,Anti-bacterial activity (MIC),[4]; strain BCA 14-7,4 mg/L
same,Anti-bacterial activity (MIC),[4]; strain BCA 14-8,1 mg/L
same,Anti-bacterial activity (MIC),[4]; strain BCA 14-10,1 mg/L
same,"Anti-bacterial activity (MIC), strain ECO+ 15-1",[5],16 mg/L
same,"Anti-bacterial activity (MIC), strain ECO+ 15-2",[5],32 mg/L
same,"Anti-bacterial activity (MIC), strain ECO+ 15-3",[5],32 mg/L
same,"Anti-bacterial activity (MIC), strain ECO+ 15-4",[5],16 mg/L
same,"Anti-bacterial activity (MIC), strain ECO− 15-1",[5],16 mg/L
same,"Anti-bacterial activity (MIC), strain ECO− 15-2",[5],32 mg/L
same,"Anti-bacterial activity (MIC), strain ECO− 15-3",[5],32 mg/L
same,"Anti-bacterial activity (MIC), strain ECO− 15-4",[5],16 mg/L
same,"Anti-bacterial activity (MIC), strain MSSA 15-3",[6],2 mg/L
same,"Anti-bacterial activity (MIC), strain MSSA 15-4",[6],0.5 mg/L
same,"Anti-bacterial activity (MIC), strain MSSA 15-5",[6],0.25 mg/L
same,"Anti-bacterial activity (MIC), strain MSSA 15-6",[6],16 mg/L
same,"Anti-bacterial activity (MIC), strain MSSE 15-3",[7],0.5 mg/L
same,"Anti-bacterial activity (MIC), strain MSSE 15-4",[7],1 mg/L
same,"Anti-bacterial activity (MIC), strain MSSE 15-5",[7],1 mg/L
same,"Anti-bacterial activity (MIC), strain MSSE 15-6",[7],0.25 mg/L
same,"Anti-bacterial activity (MIC), strain MRSA 15-1",[8],0.5 mg/L
same,"Anti-bacterial activity (MIC), strain MRSA 15-2",[8],1 mg/L
same,"Anti-bacterial activity (MIC), strain MRSA 15-3",[8],0.5 mg/L
same,"Anti-bacterial activity (MIC), strain MRSA 15-4",[8],1 mg/L
same,Anti-bacterial activity (MIC),[9]; strain EFA 15-1,32 mg/L
same,Anti-bacterial activity (MIC),[9]; strain EFA 15-2,32 mg/L
same,Anti-bacterial activity (MIC),[9]; strain EFA 15-3,32 mg/L
same,Anti-bacterial activity (MIC),[9]; strain EFA 15-4,32 mg/L
same,Anti-bacterial activity (MIC),[9]; strain EFA 15-5,32 mg/L
same,Anti-bacterial activity (MIC),[9]; strain EFA 15-6,32 mg/L
same,Anti-bacterial activity (MIC),[9]; strain EFA 15-9,1 mg/L
same,inhibition at 30 µM,[10]; [14],> 50%
same,HCT116 inhibition rate/%,[10]; 30 µM,64%
same,inhibition at 30 µM,[11],50%
same,inhibition at 30 µM,[12],> 50%
same,"Inhibition of proliferation, Lung cancer A549","[12]; 72 hours, 30 µM",54%
same,inhibition at 30 µM,[13],> 50%
same,"Inhibition of proliferation, Liver cancer BEL-7402",[13],62%
